Test results published in publication PMC11405271, “Atypical cellular responses mediated by intracellular constitutive active TrkB (NTRK2) kinase domains and a solely intracellular NTRK2-fusion oncogene” (Cancer Gene Therapy, 2024).

Target: T1, TrkB-wt (Mus musculus, UniProt P15209)
T1 construct: gene Ntrk2; full-length receptor with kinase domain, pcDNA3, transiently overexpressed in HEK293; 130 kDa mature and 90 kDa underglycosylated
Test: Western blot and immunofluorescence of pTrk-kin, transfected HEK293
Type: cell-based
Conditions: no neurotrophin, constitutive kinase activity; concentrations only in figure

T1 sequence (P15209 32-821): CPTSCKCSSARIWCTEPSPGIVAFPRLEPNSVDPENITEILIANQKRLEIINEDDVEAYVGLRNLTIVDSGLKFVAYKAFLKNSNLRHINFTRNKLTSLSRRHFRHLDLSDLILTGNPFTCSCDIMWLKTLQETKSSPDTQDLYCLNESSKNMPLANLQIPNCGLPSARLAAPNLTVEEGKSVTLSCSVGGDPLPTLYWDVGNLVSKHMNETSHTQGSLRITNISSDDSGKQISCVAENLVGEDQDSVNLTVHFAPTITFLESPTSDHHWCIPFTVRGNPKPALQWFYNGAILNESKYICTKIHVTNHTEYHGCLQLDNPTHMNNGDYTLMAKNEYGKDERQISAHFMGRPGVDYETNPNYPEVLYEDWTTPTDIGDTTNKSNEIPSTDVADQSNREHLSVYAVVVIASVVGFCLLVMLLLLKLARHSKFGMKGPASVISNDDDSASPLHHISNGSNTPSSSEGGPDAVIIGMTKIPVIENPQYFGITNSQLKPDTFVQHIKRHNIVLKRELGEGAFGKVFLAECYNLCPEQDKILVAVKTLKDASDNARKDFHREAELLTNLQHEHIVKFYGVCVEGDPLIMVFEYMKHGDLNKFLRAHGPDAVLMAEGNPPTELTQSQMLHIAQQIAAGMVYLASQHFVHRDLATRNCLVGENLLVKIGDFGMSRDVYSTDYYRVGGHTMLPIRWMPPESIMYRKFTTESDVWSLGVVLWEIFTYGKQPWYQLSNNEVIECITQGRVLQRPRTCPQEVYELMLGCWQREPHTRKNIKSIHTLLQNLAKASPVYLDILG

| Structure (SMILES) | Western blot and immunofluorescence of pTrk-kin, transfected HEK293 |
| --- | --- |
| O=C(Nc1cnn2ccc(N3CCC[C@@H]3c3cc(F)ccc3F)nc12)N1CC[C@H](O)C1 [LOXO-101] | TrkB self-activity is reduced upon inhibitor treatment |
| CN1CCN(c2ccc(C(=O)Nc3n[nH]c4ccc(Cc5cc(F)cc(F)c5)cc34)c(NC3CCOCC3)c2)CC1 [Entrectinib] | TrkB self-activity is reduced upon inhibitor treatment |
